Measured values from ChEMBL document CHEMBL1201862, “PubChem BioAssay data set” (2004).
Values belong to the molecule of their own block, whether it stands above or below them. Active and inactive are the calls of the source.

What was measured:
[1] = target: T1, Microphthalmia-associated transcription factor (Homo sapiens, UniProt O75030); assay: TRPM1 promoter luciferase signal decrease, dose response, MITF inhibitor project, cell-based, SK-MEL-5, cherry-picked, set 3 (AID 493073); assay type: functional
T1 sequence (O75030 whole entry): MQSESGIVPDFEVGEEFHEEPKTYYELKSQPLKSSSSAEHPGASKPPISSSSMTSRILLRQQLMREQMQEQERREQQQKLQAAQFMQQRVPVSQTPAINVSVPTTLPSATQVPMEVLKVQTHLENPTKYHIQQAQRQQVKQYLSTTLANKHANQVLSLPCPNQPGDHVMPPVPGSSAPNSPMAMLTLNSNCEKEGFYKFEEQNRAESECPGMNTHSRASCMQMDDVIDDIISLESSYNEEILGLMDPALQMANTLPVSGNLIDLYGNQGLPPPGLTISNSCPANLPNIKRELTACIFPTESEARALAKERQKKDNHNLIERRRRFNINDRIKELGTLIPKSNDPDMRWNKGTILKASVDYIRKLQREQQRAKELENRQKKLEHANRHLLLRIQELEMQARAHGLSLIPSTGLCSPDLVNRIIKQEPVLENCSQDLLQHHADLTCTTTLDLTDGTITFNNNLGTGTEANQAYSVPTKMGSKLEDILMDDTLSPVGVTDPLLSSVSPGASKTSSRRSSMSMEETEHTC

[2] = system: Vero; assay: Vero cell cytotoxicity, cytotoxicity control for flavivirus capping enzyme inhibitors (AID 588742); assay type: functional; conditions: Chlorocebus sabaeus
[3] = cytotoxicity in HEK-293T cells, dose response, cytotoxicity control for TCR NF-kB inhibitor project, luminescence, T-cell screen hits (AID 489026); assay type: functional, cell-based;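 also: cells exposed to compound about 14 hours before the viability readout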
[4] = control 3'UTR Renilla luciferase suppression, dose response, counter-screen for Shn3 inhibitor project, cell-based, Clone20-Shn3RL, cherry-picked (AID 624133); assay type: functional
[5] = target: ATP-dependent molecular chaperone HSP82 (Candida albicans (strain WO-1) (Yeast), UniProt C4YTQ8); assay: loss of DOC-induced GRE-beta-galactosidase reporter signal, dose response, Hsp90 inhibitor project, S. cerevisiae, luminescence (AID 2400); assay type: functional, cell-based;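 also: beta-galactosidase luminescence from glucocorticoid response element reporter as proxy for Hsp90 function; inhibitor potency where signal loss means Hsp90 inhibition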
[6] = cytotoxicity toward NIH3T3 fibroblasts, dose response, counter-screen, cell-based, ATP luminescence, mouse fibroblasts (AID 2010); assay type: functional;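 also: cells exposed to compound for about 90 hours before reading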
[7] = Luminescence-based dose response cell-based high throughput screening assay for cytotoxic compounds using the IEC-6 intestinal epithelial cell line. [Related pubchem assays: 1858 (Summary AID.), 1825 (Counterscreen.), 1907 (Confirmation screen.)]; assay type: functional
[8] = target: T2, Serine/threonine-protein phosphatase (Candida dubliniensis (strain CD36 / CBS 7987 / NCPF 3949 / NRRLY-17841) (Yeast), UniProt B9W6M3); assay: calcineurin pathway inhibitors in yeast reporter, dose response, S. cerevisiae, CDRE-lacZ, luminescence, secondary (AID 2388); assay type: functional, cell-based;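 also: yeast reporter cells carrying a calcineurin-responsive lacZ construct stimulated with calcium chloride; luminescent beta-galactosidase reporter signal in whole cells rather than isolated phosphatase activity; potency for inhibition where a drop in reporter signal means calcineurin blockade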
T2 sequence (B9W6M3 whole entry): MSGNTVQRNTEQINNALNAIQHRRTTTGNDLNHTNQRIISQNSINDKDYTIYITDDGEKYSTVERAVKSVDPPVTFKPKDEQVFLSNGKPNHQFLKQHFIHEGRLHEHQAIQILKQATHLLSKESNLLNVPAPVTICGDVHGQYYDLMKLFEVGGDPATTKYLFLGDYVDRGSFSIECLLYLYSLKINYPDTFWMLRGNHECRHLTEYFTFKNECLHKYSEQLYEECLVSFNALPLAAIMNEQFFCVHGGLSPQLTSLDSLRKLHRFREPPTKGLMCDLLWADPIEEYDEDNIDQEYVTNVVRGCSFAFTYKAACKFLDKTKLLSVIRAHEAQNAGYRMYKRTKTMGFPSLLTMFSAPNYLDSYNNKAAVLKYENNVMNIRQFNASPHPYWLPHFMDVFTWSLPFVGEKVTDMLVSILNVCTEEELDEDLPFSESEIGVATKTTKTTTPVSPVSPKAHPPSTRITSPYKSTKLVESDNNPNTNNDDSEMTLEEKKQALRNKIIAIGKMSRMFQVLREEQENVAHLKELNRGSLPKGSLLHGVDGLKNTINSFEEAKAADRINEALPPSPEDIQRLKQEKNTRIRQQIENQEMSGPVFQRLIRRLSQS

[9] = target: Activated CDC42 kinase 1 (Homo sapiens, UniProt Q07912); assay: Navigating the Kinome. Panel member name: ACK1; assay type: functional
[10] = target: Tyrosine-protein kinase BTK (Homo sapiens, UniProt Q06187); assay type: functional
[11] = target: Fibroblast growth factor receptor 1 (Homo sapiens, UniProt P11362); assay type: functional
[12] = target: Dual specificity mitogen-activated protein kinase kinase 1 (Homo sapiens, UniProt Q02750); assay: Navigating the Kinome. Panel member name: MAP2K1; assay type: functional
Dual specificity mitogen-activated protein kinase kinase 1, sequence (Q02750 whole entry): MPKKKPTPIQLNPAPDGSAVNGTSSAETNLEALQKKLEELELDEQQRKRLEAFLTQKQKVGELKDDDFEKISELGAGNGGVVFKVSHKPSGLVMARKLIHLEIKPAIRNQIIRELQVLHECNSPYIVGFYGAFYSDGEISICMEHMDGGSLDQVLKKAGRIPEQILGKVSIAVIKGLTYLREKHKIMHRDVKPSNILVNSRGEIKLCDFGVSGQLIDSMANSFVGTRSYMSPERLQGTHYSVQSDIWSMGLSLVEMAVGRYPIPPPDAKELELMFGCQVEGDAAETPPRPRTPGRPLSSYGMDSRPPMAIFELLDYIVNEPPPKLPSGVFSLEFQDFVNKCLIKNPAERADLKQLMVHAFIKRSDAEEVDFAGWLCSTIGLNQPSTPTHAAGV

[13] = target: Glycogen synthase kinase-3 alpha (Homo sapiens, UniProt P49840); assay type: functional;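 also: GSK3A result taken from a broad kinome-wide kinase panel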
[14] = target: Leucine-rich repeat serine/threonine-protein kinase 2 (Homo sapiens, UniProt Q5S007); assay type: functional;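 also: value from a broad kinome-wide panel profiling study in which LRRK2 was one of the kinases tested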
Leucine-rich repeat serine/threonine-protein kinase 2, sequence (Q5S007 whole entry): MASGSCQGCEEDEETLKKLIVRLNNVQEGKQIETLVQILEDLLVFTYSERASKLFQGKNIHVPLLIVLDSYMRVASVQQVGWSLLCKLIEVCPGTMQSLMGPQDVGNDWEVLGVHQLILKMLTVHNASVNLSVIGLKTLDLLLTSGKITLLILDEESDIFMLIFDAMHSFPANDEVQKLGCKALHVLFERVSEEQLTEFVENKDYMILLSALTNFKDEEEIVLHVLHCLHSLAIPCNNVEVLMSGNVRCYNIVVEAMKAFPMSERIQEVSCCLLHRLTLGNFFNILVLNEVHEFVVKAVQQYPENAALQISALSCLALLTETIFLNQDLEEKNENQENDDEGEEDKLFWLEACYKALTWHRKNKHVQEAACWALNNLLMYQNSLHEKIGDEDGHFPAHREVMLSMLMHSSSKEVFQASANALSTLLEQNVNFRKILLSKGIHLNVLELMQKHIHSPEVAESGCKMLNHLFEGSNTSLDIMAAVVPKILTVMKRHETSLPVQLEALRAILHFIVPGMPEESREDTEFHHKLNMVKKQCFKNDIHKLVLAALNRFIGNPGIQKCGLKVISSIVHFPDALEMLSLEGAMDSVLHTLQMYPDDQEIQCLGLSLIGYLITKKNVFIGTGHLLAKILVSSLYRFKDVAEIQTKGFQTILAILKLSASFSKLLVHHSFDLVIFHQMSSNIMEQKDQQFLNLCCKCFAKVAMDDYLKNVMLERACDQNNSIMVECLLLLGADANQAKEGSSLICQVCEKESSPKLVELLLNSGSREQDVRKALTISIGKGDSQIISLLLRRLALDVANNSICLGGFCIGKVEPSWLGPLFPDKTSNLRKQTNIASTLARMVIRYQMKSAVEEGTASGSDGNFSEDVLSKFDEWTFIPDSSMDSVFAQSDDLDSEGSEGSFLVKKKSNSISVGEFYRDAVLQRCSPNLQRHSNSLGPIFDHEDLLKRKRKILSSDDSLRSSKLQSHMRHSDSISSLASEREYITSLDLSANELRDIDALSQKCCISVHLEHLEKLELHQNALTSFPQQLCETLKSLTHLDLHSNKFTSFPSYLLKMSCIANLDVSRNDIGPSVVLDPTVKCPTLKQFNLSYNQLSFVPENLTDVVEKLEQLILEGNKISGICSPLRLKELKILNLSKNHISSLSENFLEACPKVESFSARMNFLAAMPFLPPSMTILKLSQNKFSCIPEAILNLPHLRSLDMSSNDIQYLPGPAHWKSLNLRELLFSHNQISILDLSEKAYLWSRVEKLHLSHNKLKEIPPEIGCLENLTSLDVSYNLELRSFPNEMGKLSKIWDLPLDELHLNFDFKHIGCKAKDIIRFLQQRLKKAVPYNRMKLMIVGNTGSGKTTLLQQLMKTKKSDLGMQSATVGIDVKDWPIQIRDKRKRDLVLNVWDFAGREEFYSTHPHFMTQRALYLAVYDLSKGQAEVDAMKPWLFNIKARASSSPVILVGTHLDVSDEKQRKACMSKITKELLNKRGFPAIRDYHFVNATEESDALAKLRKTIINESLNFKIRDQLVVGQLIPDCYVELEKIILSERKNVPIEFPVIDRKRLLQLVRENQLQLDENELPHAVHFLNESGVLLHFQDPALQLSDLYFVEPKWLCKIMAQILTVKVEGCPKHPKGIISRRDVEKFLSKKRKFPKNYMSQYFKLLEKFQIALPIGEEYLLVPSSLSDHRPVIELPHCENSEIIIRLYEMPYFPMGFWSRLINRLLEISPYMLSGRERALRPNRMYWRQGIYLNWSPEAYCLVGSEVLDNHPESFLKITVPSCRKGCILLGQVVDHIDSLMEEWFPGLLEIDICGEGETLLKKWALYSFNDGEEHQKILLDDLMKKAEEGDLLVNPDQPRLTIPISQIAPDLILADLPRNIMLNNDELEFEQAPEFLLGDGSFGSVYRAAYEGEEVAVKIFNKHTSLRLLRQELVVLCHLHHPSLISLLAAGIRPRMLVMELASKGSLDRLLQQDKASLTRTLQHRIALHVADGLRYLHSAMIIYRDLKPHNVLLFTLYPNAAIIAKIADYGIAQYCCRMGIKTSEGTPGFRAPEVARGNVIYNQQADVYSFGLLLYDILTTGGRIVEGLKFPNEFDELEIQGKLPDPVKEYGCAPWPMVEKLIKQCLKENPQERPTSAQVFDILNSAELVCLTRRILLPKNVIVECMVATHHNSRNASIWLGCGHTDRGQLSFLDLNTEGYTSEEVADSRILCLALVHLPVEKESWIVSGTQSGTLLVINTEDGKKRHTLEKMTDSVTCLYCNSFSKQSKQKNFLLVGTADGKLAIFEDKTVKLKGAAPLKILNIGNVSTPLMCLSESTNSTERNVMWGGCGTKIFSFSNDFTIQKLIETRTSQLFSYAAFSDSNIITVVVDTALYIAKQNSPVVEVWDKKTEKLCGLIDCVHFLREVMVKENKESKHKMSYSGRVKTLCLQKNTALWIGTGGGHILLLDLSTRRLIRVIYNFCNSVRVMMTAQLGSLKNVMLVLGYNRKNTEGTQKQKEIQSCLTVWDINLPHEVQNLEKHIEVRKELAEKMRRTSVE

[15] = target: Dual specificity mitogen-activated protein kinase kinase 2 (Homo sapiens, UniProt P36507); assay: Navigating the Kinome. Panel member name: MAP2K2; assay type: functional
[16] = target: Activin receptor type-1 (Homo sapiens, UniProt Q04771); assay: Navigating the Kinome. Panel member name: ACVR1; assay type: functional
[17] = target: Cyclin-dependent kinase 7 (Homo sapiens, UniProt P50613); assay type: functional;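 also: value comes from a kinome-wide kinase profiling panel in which CDK7 is one member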
[18] = target: Mitogen-activated protein kinase 14 (Homo sapiens, UniProt Q16539); assay type: functional;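 also: part of a kinome-wide panel, MAPK14 entry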
Mitogen-activated protein kinase 14, sequence (Q16539 whole entry): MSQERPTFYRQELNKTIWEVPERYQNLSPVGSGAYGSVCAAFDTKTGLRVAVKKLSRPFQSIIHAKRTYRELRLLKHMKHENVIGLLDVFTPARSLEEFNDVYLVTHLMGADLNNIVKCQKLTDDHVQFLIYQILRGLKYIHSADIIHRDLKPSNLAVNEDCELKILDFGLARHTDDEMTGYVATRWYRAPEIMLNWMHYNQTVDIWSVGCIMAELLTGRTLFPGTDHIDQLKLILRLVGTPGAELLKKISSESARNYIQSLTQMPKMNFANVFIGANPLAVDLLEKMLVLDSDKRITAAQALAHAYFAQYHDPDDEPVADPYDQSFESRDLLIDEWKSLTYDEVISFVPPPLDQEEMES

[19] = target: Mitogen-activated protein kinase 10 (Homo sapiens, UniProt P53779); assay: Navigating the Kinome. Panel member name: MAPK10; assay type: functional
Mitogen-activated protein kinase 10, sequence (P53779 whole entry): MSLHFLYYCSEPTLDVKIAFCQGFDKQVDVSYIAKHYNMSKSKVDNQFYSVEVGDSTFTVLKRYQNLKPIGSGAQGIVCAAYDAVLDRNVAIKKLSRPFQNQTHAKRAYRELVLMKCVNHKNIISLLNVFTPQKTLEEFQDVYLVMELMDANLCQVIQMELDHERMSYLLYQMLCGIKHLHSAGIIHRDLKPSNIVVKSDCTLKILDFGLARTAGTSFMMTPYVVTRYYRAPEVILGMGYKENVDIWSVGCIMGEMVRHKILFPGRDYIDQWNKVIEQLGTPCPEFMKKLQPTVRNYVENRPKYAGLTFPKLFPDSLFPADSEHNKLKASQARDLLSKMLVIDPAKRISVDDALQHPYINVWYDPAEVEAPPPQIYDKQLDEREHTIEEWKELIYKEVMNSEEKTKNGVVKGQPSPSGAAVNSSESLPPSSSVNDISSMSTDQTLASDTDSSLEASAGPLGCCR

[20] = target: Dual specificity protein kinase CLK2 (Homo sapiens, UniProt P49760); assay type: functional
Dual specificity protein kinase CLK2, sequence (P49760 whole entry): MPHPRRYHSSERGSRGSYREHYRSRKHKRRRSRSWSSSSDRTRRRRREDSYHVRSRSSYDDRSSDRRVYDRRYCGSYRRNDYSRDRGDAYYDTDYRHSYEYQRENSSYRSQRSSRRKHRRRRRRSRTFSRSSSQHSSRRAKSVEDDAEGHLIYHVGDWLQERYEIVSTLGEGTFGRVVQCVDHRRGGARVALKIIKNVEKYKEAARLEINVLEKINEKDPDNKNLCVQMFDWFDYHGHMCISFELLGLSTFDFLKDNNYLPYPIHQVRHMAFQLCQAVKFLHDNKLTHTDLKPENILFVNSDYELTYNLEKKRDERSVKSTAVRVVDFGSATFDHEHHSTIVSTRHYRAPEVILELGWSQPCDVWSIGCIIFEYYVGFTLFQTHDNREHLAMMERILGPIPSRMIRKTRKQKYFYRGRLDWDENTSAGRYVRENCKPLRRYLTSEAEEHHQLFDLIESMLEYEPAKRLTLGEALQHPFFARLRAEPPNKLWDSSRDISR

[21] = target: Tyrosine-protein kinase Fyn (Homo sapiens, UniProt P06241); assay type: functional
Tyrosine-protein kinase Fyn, sequence (P06241 whole entry): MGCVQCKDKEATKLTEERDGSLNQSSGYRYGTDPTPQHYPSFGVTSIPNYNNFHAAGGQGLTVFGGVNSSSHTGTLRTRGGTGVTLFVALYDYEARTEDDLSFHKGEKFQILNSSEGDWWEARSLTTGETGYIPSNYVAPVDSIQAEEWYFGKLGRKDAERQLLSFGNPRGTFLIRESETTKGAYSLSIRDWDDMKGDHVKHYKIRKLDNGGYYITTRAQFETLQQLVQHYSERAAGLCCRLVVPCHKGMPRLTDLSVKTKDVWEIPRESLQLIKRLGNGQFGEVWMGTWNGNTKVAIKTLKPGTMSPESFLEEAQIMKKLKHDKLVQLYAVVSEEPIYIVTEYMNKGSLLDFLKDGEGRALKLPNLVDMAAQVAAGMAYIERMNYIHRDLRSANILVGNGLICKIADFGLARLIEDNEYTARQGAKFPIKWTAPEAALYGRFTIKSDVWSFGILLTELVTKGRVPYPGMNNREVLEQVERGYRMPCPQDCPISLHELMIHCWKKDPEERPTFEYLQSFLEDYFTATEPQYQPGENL

[22] = target: Serine/threonine-protein kinase D3 (Homo sapiens, UniProt O94806); assay type: functional;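 also: determined within a kinase panel screen, with PRKCN as the panel member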

Structure (SMILES): CCc1cc[n+](C2=C([N-]S(=O)(=O)c3cccs3)C(=O)c3ccccc3C2=O)cc1
- AC50 [1]: 1150 nM (active)

Structure (SMILES): O=C(NC1=C(NC2CCS(=O)(=O)C2)C(=O)c2ccccc2C1=O)c1ccccc1 (configuration not stated)
- CC50 [2]: 7480 nM (active)

Structure (SMILES): CCCC(=O)NC(c1ccc(N(C)C)cc1)c1ccc2cccnc2c1O (configuration not stated)
- IC50 [3]: > 80000 nM (inactive)
- AC50 [4]: 745 nM (active)
- EC50 [5]: > 160000 nM (inactive)
- EC50 [6]: 729 nM (active)
- IC50 [7]: 1550 nM (active)
- EC50 [8]: > 180000 nM (inactive)

- Ki [9]: > 3980 nM (inactive)
- Ki [10]: > 6310 nM (inactive)
- Ki [11]: > 2510 nM (inactive)
- Ki [12]: 794 nM (active)
- Ki [13]: 39.8 nM (active)
- Ki [14]: 398 nM (active)
- Ki [15]: 1260 nM (active)
- Ki [16]: > 3980 nM (inactive)
- Ki [17]: 1260 nM (active)
- Ki [18]: > 3980 nM (inactive)
- Ki [19]: > 3160 nM (inactive)
- Ki [20]: > 2510 nM (inactive)
- Ki [21]: > 6310 nM (inactive)
- Ki [22]: 1580 nM (active)
Structure (SMILES): O=C1NC(=O)C(c2c[nH]c3ccccc23)=C1c1nc(N2CCNCC2)nc2ccccc12
